Reference: patent publication US4005103A, “Pyrrolidine derivatives” (priority 1973, dated 1977)
Where two headings read alike, the source gives them in different places.

Experiments:
[1] = Anorexigenic activity in dogs; type: in vivo, Beagle dogs; details: Canis lupus familiaris, read-out: percentage inhibition of consuming food
Description: 2. ANOREXIGENIC ACTIVITY IN DOGS
Beagle dogs are conditioned to take their food over the course of 5 minutes once per day. The test compound is administered orally in the form of a single dose of 10 mg/kg one hour before the food is presented. The amount of food ingested is measured at regular intervals.
Table II gives the percentage inhibition of consuming food as a function of the time after treatment.

[2] = Potentiation of amphetamine: stereotypies in rats after d-amphetamine sulphate; type: in vivo; details: 30 min before 5 mg/kg d-amphetamine sulphate i.p., over 3 hours, maximum 24
Description: 1. POTENTIATION OF AMPHETAMINE
The test compound is administered intraperitoneally to rats 30 minutes before the intraperitoneal injection of 5 mg/kg of d-amphetamine sulphate. The intensity of the stereotypies over a period of 3 hours is assessed by attributing a number from 0 to 4. Table I indicates the sum of the assessments as a function of the doses administered. The maximum assessment is 24.

[3] = Beagle dogs, 10 mg/kg oral, 1 hr after treatment
[4] = Beagle dogs, 10 mg/kg oral, 2 hrs after treatment
[5] = Beagle dogs, 10 mg/kg oral, 4 hrs after treatment
[6] = Beagle dogs, 10 mg/kg oral, 24 hrs after treatment

Compound | inhibition in vivo at 10 mg/kg ([1]; po, 1 h) [%] | inhibition in vivo at 10 mg/kg ([1]; po, 2 h) [%] | inhibition in vivo at 10 mg/kg ([1]; po, 4 h) [%] | inhibition in vivo at 10 mg/kg ([1]; po, 24 h) [%] | sum of the assessments of intensity of stereotypies ([2]; 4 mg/kg intraperitoneal) | sum of the assessments of intensity of stereotypies ([2]; 8 mg/kg intraperitoneal) | sum of the assessments of intensity of stereotypies ([2]; 16 mg/kg intraperitoneal) | sum of the assessments of intensity of stereotypies ([2]; 1 mg/kg intraperitoneal) | inhibition in vivo at 10 mg/kg [1, 3] [%] | inhibition in vivo at 10 mg/kg [1, 4] [%] | inhibition in vivo at 10 mg/kg [1, 5] [%] | inhibition in vivo at 10 mg/kg [1, 6] [%] | sum of the assessments of intensity of stereotypies ([2]; 2 mg/kg intraperitoneal) | sum of the assessments of intensity of stereotypies ([2]; 32 mg/kg intraperitoneal) | sum of the assessments of intensity of stereotypies ([2]; 0.5 mg/kg intraperitoneal)
CC1(C)NC(C2CC2)CC1c1ccccc1.Cl (stereo not shown) [Example XXI, 2-cyclopropyl-4-phenyl-5,5-dimethylpyrrolidine hydrochloride] | 100 | 100 | 70 | 0 | 10 | 11 | 13 |  |  |  |  |  |  |  | 
CC1NC(C2CC2)CC1c1ccccc1.Cl (stereo not shown) [Example XXII, 2-cyclopropyl-4-phenyl-5-methyl-pyrrolidine hydrochloride] | 50 | 50 | 0 |  | 9 |  | 12 | 8 |  |  |  |  |  |  | 
CC1(C)NC(C2CC2)CC1c1ccc(Cl)cc1.Cl (stereo not shown) [Example XXIII, 2-cyclopropyl-4-(p-chlorophenyl)-5,5-dimethyl-pyrrolidine hydrochloride] |  |  |  |  |  | 18 |  |  | 100 | 100 | 100 | 50 | 12 | 17 | 
CC1(C)NC(C2CC2)CC1c1cccc(C(F)(F)F)c1.Cl (stereo not shown) [Example XXX, 2-cyclopropyl-4-(m-trifluoromethylphenyl)-5,5-dimethylpyrrolidine hydrochl oride] |  |  |  |  | 24 |  | 24 | 20 | 0 | 0 |  |  |  |  | 
C#CCN1C(C)C(c2ccc(Cl)c(Cl)c2)CC1C1CC1.Cl (stereo not shown) [Example XXXV, N-propargyl-2-cyclopropyl-4-(3',4'-dichlorophenyl)-5-methylpyrrolidine hydrochloride] | 60 | 60 | 60 | 0 | 23 |  | 23 | 18 |  |  |  |  |  |  | 
CC1NC(C2CC2)CC1c1cccc(C(F)(F)F)c1.Cl (stereo not shown) [XXIX, 2-cyclopropyl-4-(m-trifluoromethylphenyl)-5-methyl-pyrrolidine hydrochloride] |  |  |  |  | 22 |  | 16 | 17 | 0 | 0 |  |  |  |  | 
CC1NC(C2CC2)CC1c1cccc(Cl)c1.Cl (stereo not shown) [XXV, 2-cyclopropyl-4-(m-chlorophenyl)-5-methylpyrrolidine hydrochloride] |  |  |  |  |  | 23 |  |  | 50 | 50 | 50 | 0 | 18 |  | 13
CC1(C)NC(C2CC2)CC1c1cccc(Cl)c1.Cl (stereo not shown) [XXVI, 2-cyclopropyl-4-(m-chlorophenyl)-5,5-dimethylpyrrolidine hydrochloride] |  |  |  |  | 14 |  | 19 | 12 | 60 | 60 | 60 | 0 |  |  | 
CC1(C)NC(C2CC2)CC1c1cccc(F)c1.Cl (stereo not shown) [XXVIII, 2-cyclopropyl-4-(m-fluorophenyl)-5,5-dimethylpyrrolidine hydrochloride] |  |  |  |  | 17 |  | 16 | 16 | 100 | 100 | 100 | 0 |  |  | 
